Laboratory results as given in patent publication US20250101041A1, “POSITIVE ALLOSTERIC MODULATORS OF THE MUSCARINIC ACETYLCHOLINE RECEPTOR M4” (Vanderbilt University, priority 2022, published 2025).

Biological target: T1, human mAChR M4 (Homo sapiens, UniProt P08173)
T1 construct: expressed in transfected cells; host or cells: CHO-K1 (American Type Culture Collection), stably expressing hM4 and Gqi5
T1 sequence (P08173 1-479): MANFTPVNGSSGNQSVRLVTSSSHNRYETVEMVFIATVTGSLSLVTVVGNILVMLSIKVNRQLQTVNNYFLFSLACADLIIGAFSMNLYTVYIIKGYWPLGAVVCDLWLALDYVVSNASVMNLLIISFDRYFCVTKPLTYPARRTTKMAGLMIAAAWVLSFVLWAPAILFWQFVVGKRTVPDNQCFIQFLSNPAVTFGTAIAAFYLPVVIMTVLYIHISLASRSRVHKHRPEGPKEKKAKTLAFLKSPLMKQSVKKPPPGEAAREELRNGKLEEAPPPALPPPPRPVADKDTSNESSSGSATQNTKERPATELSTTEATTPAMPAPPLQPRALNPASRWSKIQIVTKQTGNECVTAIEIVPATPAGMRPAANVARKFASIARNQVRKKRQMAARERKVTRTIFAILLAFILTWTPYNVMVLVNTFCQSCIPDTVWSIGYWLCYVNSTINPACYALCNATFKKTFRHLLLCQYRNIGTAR
Assay: mAChR M4 cell-based functional assay: calcium mobilization (Fluo-4, FDSS), potentiation of EC20 acetylcholine response in hM4-Gqi5 CHO-K1 cells
Conditions: human M4; for Emax at 30 µM: CHO-K1, % ACh maximum at 30 μM; for EC50: potentiation of EC20 acetylcholine response, calcium mobilization
How it was run: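 CHO-K1 cells stably co-expressing human M4 and chimeric Gqi5, loaded with Fluo-4 AM (50 min, 37 °C). Compounds in 11-point 1:3 series added first; EC20 acetylcholine added at 144 s and again at 230 s. Calcium read on FDSS at 1 Hz; EC50 and Emax from four-parameter logistic fit of potentiated EC20 response.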

Row | SMILES | Emax at 30 µM | EC50 | Emax (%)* (% ACh maximum at 30 μM)
1 | Cc1cc2nccc(=O)n2nc1N1CCc2ncc(Nc3cncc(F)c3)cc2C1 [Compound 2-128, 7-(3-((5-fluoropyridin-3-yl)amino)-7,8-dihydro-1,6-naphthyridin-6(5H)-yl)-8-methyl-4H-pyrimido[1,2-b]pyridazin-4-one] | 82% | 90 nM | 
2 | Cc1cc(=O)n2nc(N3CCc4ncc(-c5ccncc5)cc4C3)c(C)c(C)c2n1 [Compound 1-244, 2,8,9-trimethyl-7-(3-(pyridin-4-yl)-7,8-dihydro-1,6-naphthyridin-6(5H)-yl)-4H-pyrimido[1,2-b]pyridazin-4-one] | 82% | 112 nM | 
3 | Cc1cc(=O)n2nc(N3CCc4ncc(-c5cc(F)ncc5F)cc4C3)c(C)cc2n1 [Compound 1-258, 7-(3-(2,5-difluoropyridin-4-yl)-7,8-dihydro-1,6-naphthyridin-6(5H)-yl)-2,8-dimethyl-4H-pyrimido[1,2-b]pyridazin-4-one] | 67% | 363 nM | 
4 | COc1cc(C)c(-c2cnc3c(c2)CN(c2nn4c(=O)ccnc4c(C)c2C)CC3)cn1 [Compound 1-139, 7-(3-(6-methoxy-4-methylpyridin-3-yl)-7,8-dihydro-1,6-naphthyridin-6(5H)-yl)-8,9-dimethyl-4H-pyrimido[1,2-b]pyridazin-4-one] | 98% | 77 nM | 
5 | Cc1cc2nccc(=O)n2nc1N1CCc2ncc(-c3ccc(C(F)(F)F)nc3)cc2C1 [Compound 1-66, 8-methyl-7-(3-(6-(trifluoromethyl)pyridin-3-yl)-7,8-dihydro-1,6-naphthyridin-6(5H)-yl)-4H-pyrimido[1,2-b]pyridazin-4-one] | 77% | 832 nM | 
6 | Cc1cc2nc(C(F)F)cc(=O)n2nc1N1CCc2ncc(-c3cn(C)nc3C)cc2C1 [Compound 1-34, 2-(difluoromethyl)-7-(3-(1,3-dimethyl-1H-pyrazol-4-yl)-7,8-dihydro-1,6-naphthyridin-6(5H)-yl)-8-methyl-4H-pyrimido[1,2-b]pyridazin-4-one] | 90% | 73 nM | 
7 | Cc1ncccc1-c1cnc2c(c1)CN(c1nn3c(=O)cc(C(F)F)nc3c(C)c1C)CC2 [Compound 1-115, 2-(difluoromethyl)-8,9-dimethyl-7-(3-(2-methylpyridin-3-yl)-7,8-dihydro-1,6-naphthyridin-6(5H)-yl)-4H-pyrimido[1,2-b]pyridazin-4-one] | 91% | 313 nM | 
8 | Cc1c(N2CCc3ncc(-c4ccnn4C4COC4)cc3C2)nn2c(=O)ccnc2c1C [Compound 1-151, 8,9-dimethyl-7-(3-(1-(oxetan-3-yl)-1H-pyrazol-5-yl)-7,8-dihydro-1,6-naphthyridin-6(5H)-yl)-4H-pyrimido[1,2-b]pyridazin-4-one] | 75% | 3210 nM | 
9 | [2H]C1([2H])Cc2ncc(-c3c(C)noc3C)cc2C([2H])([2H])N1c1nn2c(=O)ccnc2cc1C [Compound 1-450, 7-(3-(3,5-Dimethylisoxazol-4-yl)-7,8-dihydro-1,6-naphthyridin-6(5H)-yl-5,5,7,7-d4)-8-methyl-4H-pyrimido[1,2-b]pyridazin-4-one] | 95% | 291 nM | 
10 | Cc1c(N2CCc3ncc(-c4cncc(C(F)(F)F)c4)cc3C2)nn2c(=O)cc(C(F)F)nc2c1C [Compound 1-154, 2-(difluoromethyl)-8,9-dimethyl-7-(3-(5-(trifluoromethyl)pyridin-3-yl)-7,8-dihydro-1,6-naphthyridin-6(5H)-yl)-4H-pyrimido[1,2-b]pyridazin-4-one] | 80% | 401 nM | 
11 | Cc1ccc(-c2cnc3c(c2)CN(c2nn4c(=O)cc(C)nc4c(C)c2C)CC3)cc1 [Compound 1-135, 2,8,9-trimethyl-7-(3-(p-tolyl)-7,8-dihydro-1,6-naphthyridin-6(5H)-yl)-4H-pyrimido[1,2-b]pyridazin-4-one] | 97% | 626 nM | 
12 | Cc1cc2nc(C)c(Cl)c(=O)n2nc1N1CCc2ncc(N3CCCn4nccc43)cc2C1 [Compound 2-16, 3-chloro-7-(3-(6,7-dihydropyrazolo[1,5-a]pyrimidin-4(5H)-yl)-7,8-dihydro-1,6-naphthyridin-6(5H)-yl)-2,8-dimethyl-4H-pyrimido[1,2-b]pyridazin-4-one] | 88% | 12 nM | 
13 | Cc1cc2nccc(=O)n2nc1N1CCc2ncc(-c3cnn(C)c3C)cc2C1 [Compound 1-408, 7-(3-(1,5-dimethyl-1H-pyrazol-4-yl)-7,8-dihydro-1,6-naphthyridin-6(5H)-yl)-8-methyl-4H-pyrimido[1,2-b]pyridazin-4-one] | 90% | 257 nM | 

The next lines start with the values.

Row | Emax at 30 µM | EC50 | Emax (%)* (% ACh maximum at 30 μM) | SMILES
14 | 88% | 203 nM |  | Cc1c(N2CCc3ncc(-c4cnn(C5COC5)c4)cc3C2)nn2c(=O)cc(C(F)F)nc2c1C [Compound 1-309, 2-(difluoromethyl)-8,9-dimethyl-7-(3-(1-(oxetan-3-yl)-1H-pyrazol-4-yl)-7,8-dihydro-1,6-naphthyridin-6(5H)-yl)-4H-pyrimido[1,2-b]pyridazin-4-one]
15 | 94% | 84 nM |  | Cc1c(N2CCc3ncc(N4CCO[C@H](C)C4)cc3C2)nn2c(=O)ccnc2c1C [Compound 2-32, (R)-8,9-dimethyl-7-(3-(2-methylmorpholino)-7,8-dihydro-1,6-naphthyridin-6(5H)-yl)-4H-pyrimido[1,2-b]pyridazin-4-one]
16 | 93% | 332 nM |  | Cc1cc2nccc(=O)n2nc1N1CCc2ncc(NCC3CC3)cc2C1 [Compound 2-89, 7-(3-((cyclopropylmethyl)amino)-7,8-dihydro-1,6-naphthyridin-6(5H)-yl)-8-methyl-4H-pyrimido[1,2-b]pyridazin-4-one]
17 | 55% | 2400 nM |  | Cc1cc2nccc(=O)n2nc1N1CCc2ncc(-c3ccc(F)nc3F)cc2C1 [Compound 1-318, 7-(3-(2,6-difluoropyridin-3-yl)-7,8-dihydro-1,6-naphthyridin-6(5H)-yl)-8-methyl-4H-pyrimido [1,2-b]pyridazin-4-one]
18 | 85% | 146 nM |  | Cc1cc(=O)n2nc(N3CCc4ncc(-c5ccnn5C)cc4C3)c(C)cc2n1 [Compound 1-29, 2,8-dimethyl-7-(3-(1-methyl-1H-pyrazol-5-yl)-7,8-dihydro-1,6-naphthyridin-6(5H)-yl)-4H-pyrimido[1,2-b]pyridazin-4-one]
19 | 39% |  |  | Cc1cc2nccc(=O)n2nc1N1CCc2ncc(-c3c(C)ccnc3C)cc2C1 [Compound 1-401, 7-(3-(2,4-dimethylpyridin-3-yl)-7,8-dihydro-1,6-naphthyridin-6(5H)-yl)-8-methyl-4H-pyrimido [1,2-b]pyridazin-4-one]
20 | 43% | 1300 nM |  | Cc1cc(=O)n2nc(N3CCc4ncc(-c5ccccc5C(C)C)cc4C3)c(C)cc2n1 [Compound 1-230, 7-(3-(2-isopropylphenyl)-7,8-dihydro-1,6-naphthyridin-6(5H)-yl)-2,8-dimethyl-4H-pyrimido[1,2-b]pyridazin-4-one]
21 | 67% | 668 nM |  | Cc1ccc(-c2cnc3c(c2)CN(c2nn4c(=O)ccnc4c(C)c2C2CC2)CC3)cn1 [Compound 1-112, 8-cyclopropyl-9-methyl-7-(3-(6-methylpyridin-3-yl)-7,8-dihydro-1,6-naphthyridin-6(5H)-yl)-4H-pyrimido[1,2-b]pyridazin-4-one]
22 | 73% | 262 nM |  | Cc1c(N2CCc3ncc(C(F)(F)F)cc3C2)nn2c(=O)ccnc2c1C1CC1 [Compound 1-113, 9-cyclopropyl-8-methyl-7-(3-(trifluoromethyl)-7,8-dihydro-1,6-naphthyridin-6(5H)-yl)-4H-pyrimido[1,2-b]pyridazin-4-one]
23 |  | 365 nM | 112% | COCc1cc(=O)n2nc(N3Cc4cc(C(F)(F)F)cnc4C(C)C3)c(C)c(C)c2n1 (single isomer, unassigned) [Compound 1-377]
24 | 87% | 508 nM |  | Cc1cc2nccc(=O)n2nc1N1CCc2ncc(NCc3cscn3)cc2C1 [Compound 2-130, 8-methyl-7-(3-((thiazol-4-ylmethyl)amino)-7,8-dihydro-1,6-naphthyridin-6(5H)-yl)-4H-pyrimido[1,2-b]pyridazin-4-one]
25 | 106% | 325 nM |  | COCc1cc(=O)n2nc(N3Cc4cc(C(F)(F)F)cnc4C(C)C3)c(C)c(C)c2n1 (single isomer, unassigned) [Compound 1-376]
26 | 86% | 534 nM |  | Cc1c(N2CCc3ncc(-c4ccc(-n5ccnc5)nc4)cc3C2)nn2c(=O)ccnc2c1C [Compound 1-98, 7-(3-(6-(1H-imidazol-1-yl)pyridin-3-yl)-7,8-dihydro-1,6-naphthyridin-6(5H)-yl)-8,9-dimethyl-4H-pyrimido[1,2-b]pyridazin-4-one]
27 | 88% | 315 nM |  | Cc1cc(=O)n2nc(N3CCc4ncc(-c5ccc(C)o5)cc4C3)c(C)c(C)c2n1 [Compound 1-305, 2,8,9-trimethyl-7-(3-(5-methylfuran-2-yl)-7,8-dihydro-1,6-naphthyridin-6(5H)-yl)-4H-pyrimido[1,2-b] pyridazin-4-one]
